For one compound, remaining activity results are on record in paper PMC8500670, “A selective WDR5 degrader inhibits acute myeloid leukemia in patient-derived mouse models” (Science translational medicine, 2021).

Where two headings read alike, the source gives them in different places.

Holding throughout (experiment): biochemical
Common to all, as to set-up: protein methyltransferase selectivity panel, enzyme activity relative to DMSO controls, single concentration in duplicate

For experiment [1], the target named is T1, G9a (Homo sapiens, UniProt Q96KQ7).
T1 construct: gene EHMT2
T1 sequence (Q96KQ7 1-1210): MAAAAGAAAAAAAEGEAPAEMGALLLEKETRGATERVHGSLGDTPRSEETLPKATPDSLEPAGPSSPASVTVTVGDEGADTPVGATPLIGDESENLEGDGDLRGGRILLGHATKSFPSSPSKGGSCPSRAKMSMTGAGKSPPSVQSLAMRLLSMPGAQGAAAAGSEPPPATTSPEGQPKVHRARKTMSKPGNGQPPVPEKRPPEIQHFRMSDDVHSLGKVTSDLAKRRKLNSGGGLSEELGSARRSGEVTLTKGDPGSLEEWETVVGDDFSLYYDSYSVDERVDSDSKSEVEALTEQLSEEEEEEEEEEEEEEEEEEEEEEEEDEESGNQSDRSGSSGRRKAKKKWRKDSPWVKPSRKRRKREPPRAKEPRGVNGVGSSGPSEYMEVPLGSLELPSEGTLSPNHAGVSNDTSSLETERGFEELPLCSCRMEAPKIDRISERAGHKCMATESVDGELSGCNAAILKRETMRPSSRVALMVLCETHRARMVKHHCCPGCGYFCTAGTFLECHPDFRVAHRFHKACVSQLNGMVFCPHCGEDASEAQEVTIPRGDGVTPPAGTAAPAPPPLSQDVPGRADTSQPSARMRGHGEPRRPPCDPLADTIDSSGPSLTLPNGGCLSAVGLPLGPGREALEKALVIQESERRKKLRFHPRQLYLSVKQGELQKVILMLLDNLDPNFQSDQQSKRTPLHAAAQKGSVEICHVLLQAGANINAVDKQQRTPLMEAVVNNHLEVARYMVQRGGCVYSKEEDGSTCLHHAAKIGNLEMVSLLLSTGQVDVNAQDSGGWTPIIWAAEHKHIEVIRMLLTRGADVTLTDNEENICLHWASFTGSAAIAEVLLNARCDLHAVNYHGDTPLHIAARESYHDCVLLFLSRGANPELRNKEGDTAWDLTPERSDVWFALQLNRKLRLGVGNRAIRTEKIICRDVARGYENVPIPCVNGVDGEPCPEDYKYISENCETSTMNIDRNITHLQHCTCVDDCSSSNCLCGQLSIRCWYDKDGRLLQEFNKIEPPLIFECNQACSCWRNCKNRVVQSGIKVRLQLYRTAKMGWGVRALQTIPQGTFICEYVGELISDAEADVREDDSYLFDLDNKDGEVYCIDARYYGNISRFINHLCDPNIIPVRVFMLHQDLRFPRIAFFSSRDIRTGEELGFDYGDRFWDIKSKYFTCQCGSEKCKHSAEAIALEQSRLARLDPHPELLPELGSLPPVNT
The following applies: Substrate:=Histone H3 1-21. On the procedure:
(§1) We next assessed selectivity of MS67 against 22 protein methyltransferases (table S2) and a broad panel of common drug targets including 45 kinases (table S3) and 44 G protein–coupled receptors (GPCR), ion channels, and transporters (table S4). […] We subsequently determined that MS67 had moderate binding affinity (Ki = 1.0 ± 0.8 μM) to Sigma 2 receptor (fig. S10).

For experiment [2], the target named is T2, NSD2 (Homo sapiens, UniProt O96028).
T2 sequence (O96028 1-1365): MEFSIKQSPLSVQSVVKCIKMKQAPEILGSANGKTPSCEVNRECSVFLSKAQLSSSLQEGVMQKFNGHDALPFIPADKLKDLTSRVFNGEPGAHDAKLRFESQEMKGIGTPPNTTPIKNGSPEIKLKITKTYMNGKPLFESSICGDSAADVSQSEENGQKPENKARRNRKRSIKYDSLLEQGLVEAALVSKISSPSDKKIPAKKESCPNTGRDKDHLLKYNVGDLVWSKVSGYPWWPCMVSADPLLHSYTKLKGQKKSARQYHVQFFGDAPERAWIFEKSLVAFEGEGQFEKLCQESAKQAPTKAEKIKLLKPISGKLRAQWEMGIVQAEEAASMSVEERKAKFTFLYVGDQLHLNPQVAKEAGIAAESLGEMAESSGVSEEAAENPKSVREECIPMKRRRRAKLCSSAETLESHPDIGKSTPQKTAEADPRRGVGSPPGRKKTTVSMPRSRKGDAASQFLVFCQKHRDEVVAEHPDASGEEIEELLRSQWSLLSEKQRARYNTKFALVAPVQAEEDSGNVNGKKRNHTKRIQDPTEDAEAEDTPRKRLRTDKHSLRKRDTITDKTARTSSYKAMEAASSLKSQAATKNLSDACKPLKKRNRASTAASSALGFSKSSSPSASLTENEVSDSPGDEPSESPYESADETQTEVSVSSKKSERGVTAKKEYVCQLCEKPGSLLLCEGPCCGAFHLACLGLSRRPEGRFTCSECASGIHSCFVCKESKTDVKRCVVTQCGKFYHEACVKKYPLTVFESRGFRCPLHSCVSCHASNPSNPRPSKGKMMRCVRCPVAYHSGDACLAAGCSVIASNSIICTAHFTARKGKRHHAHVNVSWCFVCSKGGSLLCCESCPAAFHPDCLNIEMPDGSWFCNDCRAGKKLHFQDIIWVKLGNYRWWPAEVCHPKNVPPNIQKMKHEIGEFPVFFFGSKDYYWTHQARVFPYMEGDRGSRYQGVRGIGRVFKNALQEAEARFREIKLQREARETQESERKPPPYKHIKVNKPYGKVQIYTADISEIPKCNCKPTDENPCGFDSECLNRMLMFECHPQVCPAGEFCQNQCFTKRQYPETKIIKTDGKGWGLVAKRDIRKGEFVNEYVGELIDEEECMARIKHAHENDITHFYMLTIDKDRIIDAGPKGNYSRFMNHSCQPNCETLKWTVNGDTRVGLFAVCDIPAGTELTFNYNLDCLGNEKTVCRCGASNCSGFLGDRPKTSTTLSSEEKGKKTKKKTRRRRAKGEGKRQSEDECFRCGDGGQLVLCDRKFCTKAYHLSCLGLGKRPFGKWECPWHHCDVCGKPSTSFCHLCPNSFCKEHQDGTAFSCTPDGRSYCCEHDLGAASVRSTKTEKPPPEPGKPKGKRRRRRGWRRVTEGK
The following applies: Substrate:=Nucleosomes. On the procedure:
as §1

The target of experiment [3] is PRMT6 (Homo sapiens, UniProt Q96LA8). Conditions: Substrate:=GST-GAR. On the procedure: as §1
PRMT6, sequence (Q96LA8 whole entry): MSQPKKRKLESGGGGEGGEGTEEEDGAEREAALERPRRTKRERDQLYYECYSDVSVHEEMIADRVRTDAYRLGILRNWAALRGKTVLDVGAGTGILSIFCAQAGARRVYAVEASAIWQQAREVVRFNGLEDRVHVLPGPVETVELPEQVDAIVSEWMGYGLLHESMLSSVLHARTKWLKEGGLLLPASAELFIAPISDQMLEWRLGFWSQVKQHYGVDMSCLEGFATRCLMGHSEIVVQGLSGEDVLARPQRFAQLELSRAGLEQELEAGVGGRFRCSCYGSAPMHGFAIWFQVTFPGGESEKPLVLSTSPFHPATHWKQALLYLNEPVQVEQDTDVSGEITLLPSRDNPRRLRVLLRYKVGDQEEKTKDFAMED
[4] abbreviates: read-out: Enzyme % Activity (relative to DMSO controls) / MS67 / 10 / Data 1:
The mark [5] stands for this setting: read-out: Enzyme % Activity (relative to DMSO controls) / MS67 / 10 / Data 2:

As to `Cc1ncsc1-c1ccc([C@H](C)NC(=O)[C@@H]2C[C@@H](O)CN2C(=O)[C@@H](NC(=O)CNC(=O)c2ccc(F)c(-c3ccc(N4C[C@@H](C)N(C)[C@@H](C)C4)c(NC(=O)c4c[nH]c(=O)cc4C(F)(F)F)c3)c2)C(C)(C)C)cc1` [MS67], the remaining activity at 10 µM turned out to be 93% in experiment [1] (setting [4]); 90.9% in experiment [1] (setting [5]); 93% in experiment [2] (setting [4]); 107% in experiment [2] (setting [5]); 97.1% in experiment [3] (setting [4]); 95.1% in experiment [3] (setting [5]).
